Measurements as given in patent publication US20260234207A1, “Keratin YK93-8, and Preparation Method Therefor, Pharmaceutical Composition Thereof and Use Thereof” (INSTITUTE OF MATERIA MEDICA, CHINESE ACADEMY OF MEDICAL …, priority 2022, published 2026).
Where a name gives a salt, the structure may show the parent alone. Read-outs that look alike come from different tables or passages of the source.

What was measured:
[1] = system: acetic acid-induced writhing of mice; assay: Pharmacodynamic test on mouse pain model (acetic acid-induced writhing); format: in vivo, Male Kunming mice; conditions: 1% acetic acid intraperitoneally, writhing within 15 minutes
Experimental: • Animals: Male Kunming mice; • Drugs: Tramadol Hydrochloride Sustained Release Tablets, Glacial acetic acid, YK93-8; • Instruments: electronic balance, timer • Experiment grouping: • Normal control group; • Positive control group: Tramadol Hydrochloride group; • Protein YK93-8, (0.5 g/kg) group. • Method:
Mice in the YK93-8 (0.5 g/kg) group were administered by gavage, while mice in the model group were given an equal volume of CMC-Na once a day for 7 consecutive days. 30 minutes after the last administration, 1% acetic acid was administered intraperitoneally, and the writhing times of mice within 15 minutes was recorded, and the inhibition rate of drug-induced writhing reaction was calculated. The observation criteria were concave abdominal cavity, extended hind limbs, and raised buttocks.
The inhibition rate was calculated by (Mean number of writhing reactions in the normal control group−Mean number of writhing reactions in the treatment group)/Mean number of writhing reactions in the normal control group *100%.

Lewis lung cancer = system: Lewis lung cancer
Experimental: Subcutaneous inoculation of Lewis cell suspension to replicate mouse Lewis lung cancer model: The Lewis tumor tissue was ground into a suspension with a glass homogenizer, the tumor suspension was aspirated with a syringe, the number of live cells was calculated, the concentration of the cells was adjusted to 2.6*10^6/ml with physiological saline, and then the suspension was injected to the left armpit of the mouse with 0.2 ml/mouse. On the next day, the mice were randomly divided into normal control group, cyclophosphamide (100 mg/kg) group, and YK93-8 (0.5 g/kg) group. Cyclophosphamide was injected intraperitoneally for single time, mice in YK93-8 group were given intragastric administration every day for 10 consecutive days, mice in the normal control group were orally given the equal volume of sodium carboxymethyl cellulose. On the day of the treatment, the weight was measured, 20 μl of blood was obtained from the orbital blood and the routine blood analysis was performed. The tumor blocks were stripped, weighed and photographed, and the tumor suppression rate was calculated.
(§1) The tumor suppression rate [(The average weight of the tumor in the normal control group—the average weight of the tumor in the experimental group)/The average weight of the tumor in the normal control group×100%] and the average value, standard deviation and standard errors of tumor weight were calculated.

EL-4 lymphoma = system: EL-4 lymphoma
Experimental: (§2) • Animals: Male C57BL/6J mice • Drugs: Cyclophosphamide for injection (CTX), YK93-8 • Instruments: electronic balance, Five classified blood cell analyser • Experiment grouping: • Normal control group; • Positive control group: cyclophosphamide (100 mg/kg); • Protein YK93-8, (2 g/kg) group. • Method:
Subcutaneous inoculation of EL-4 cell suspension to replicate a mouse lymphoma model: The EL-4 tumor tissue was ground into a suspension using a glass homogenizer, the tumor suspension was aspirated with a syringe, the number of live cells was calculated, the cell concentration was adjusted to 2.0*10^6/ml with physiological saline, and then the suspension was injected into the left armpit of mice with 0.2 ml/mouse. On the next day, mice were randomly divided into a normal control group, a cyclophosphamide (100 mg/kg) group, and a YK93-8 (2 g/kg) group. Cyclophosphamide was injected intraperitoneally for single time, mice in the YK93-8 (2 g/kg) group were orally administered by gavage daily for 13 consecutive days, while mice in the normal control group were administered orally with an equal volume of sodium carboxymethyl cellulose. On the day of treatment, weight was measured, 20 μl of blood was obtained from the orbital blood and the routine blood analysis was performed. The tumor blocks were stripped, weighed and photographed, and the tumor suppression rate was calculated.
as §1, with “and” for “and the”

B16F10 melanoma = system: B16F10 melanoma
Experimental: as §2, with “female” for “Male”, “mice;” for “mice”, “cyclophosphamide group” for “cyclophosphamide”
Subcutaneous inoculation of B16F10 cell suspension to replicate a mouse melanoma model: Under sterile conditions, the tumor block was removed, ground into tumor fluid, the concentration was adjusted with physiological saline to 2.58×10^6/ml, and 0.2 ml was taken to evenly inoculate subcutaneously on the armpit back of mice. On the next day, the animals were randomly grouped and administration began (recorded as Day 0). CTX (100 mg/kg) was administered once a week, YK-93-8 (2 g/kg) was administered daily, and mice in the normal control group were orally administered an equal volume of sodium carboxymethyl cellulose. On the day of treatment, weight was measured, 20 μL of blood was obtained by taking blood from the eye socket and the blood routine analysis was performed, the tumor block was peeled off, weighed and photographed, and the tumor suppression rate was calculated.
as §1, with “and” for “and the”

[2] = system: mouse prostatic hyperplasia model; assay: Pharmacodynamic test on mouse prostatic hyperplasia model (propionate testosterone, androgen loading); conditions: for Average weight / wet weight of the prostate: 30 days of administration; for prostate index: 30 days, wet weight of the prostate (mg)/body weight (g)
Experimental: Preparation of experimental animals: The experimental animals were adapted to the experimental environment (temperature 22° C.±2° C., relative humidity 50%±2%) for 1 day.
Subcutaneous injection of propionate testosterone to replicate mice prostatic hyperplasia model: Mice were randomly grouped 10 in each group before the model being established. Propionate testosterone (0.01 mg/kg) in soybean oil was injected subcutaneously, once a day for 30 consecutive days. Mice in the normal control group were injected subcutaneously with an equal volume of sodium carboxymethyl cellulose. […] Mice were weighed on the next day. After 30 days of administration, mice were weighed, executed. The prostate was excised through a median incision in the lower abdomen, the wet weight was weighed, and the prostate index was calculated by the wet weight of the prostate (mg)/body weight of the mouse (g).
The average value, standard deviation and standard error of the prostate index in each group were calculated. The data from the groups were compared with each other by T.TEST, and P<0.05 was considered as a significant difference.

[3] = system: lactation of pregnant mice; assay: Pharmacodynamic test on lactation of pregnant mice; format: in vivo, female Kunming pregnant mice; conditions: 2 g/kg by gavage, 13 days
Experimental: • Animals: female Kunming pregnant mice, weight: 30-50 grams • Drug: YK93-8 • Instruments: electronic balance • Experiment grouping: • Normal control group; • Protein YK93-8, (2 g/kg) group. • Method:
The parturition date of each pregnant mouse was recorded and the mice were randomly divided into normal control group and YK 93-8 group based on the parturition date.
YK93-8 (2 g/kg) was administered by gavage, and the weight and weight gain of the young mice were recorded daily. After 13 days of administration, the female mouse was euthanized using cervical dislocation method, and […] of blood samples were collected from the eye socket, left standing at room temperature for 1-2 hours, centrifuged 1000 g for 20 minutes. The content of prolactin in serum was measured.
The average daily weight gain of young mice (lactation yield of female mice) and serum prolactin content of female mice in each group were calculated.

[4] = 0.1 g/kg intraperitoneally, single time
[5] = 100 mg/kg intraperitoneally, single time, P<0.05
[6] = 0.5 g/kg intragastric every day for 10 days
[7] = 2 g/kg by gavage daily for 13 days

COc1cccc(C2(O)CCCCC2CN(C)C)c1 (stereo not drawn) [Tramadol Hydrochloride]
Number of writhing ([1]; 50 mg/kg): 0.0 ± 0.00

O=P1(N(CCCl)CCCl)NCCCO1 (stereo not drawn) [cyclophosphamide, Cyclophosphamide]
Change of weight (g) Before administration (Lewis lung cancer; 0.1 g/kg group): 17.60 ± 0.59 g | Change of weight (g) After administration (Lewis lung cancer; [4]): 19.95 ± 0.77 g | Tumor suppression (%) (Lewis lung cancer; [4]): 95.35% | Tumor weight (Lewis lung cancer; [4]): 0.14 ± 0.09 g | Tumor suppression (%) (EL-4 lymphoma; [4]): 95.67% | Tumor weight (EL-4 lymphoma; [4]): 0.12 ± 0.03 g | leukocytes (blood routine test) (EL-4 lymphoma; [5]): significantly reduced | lymphocytes (blood routine test) (EL-4 lymphoma; [5]): significantly reduced | monocytes (blood routine test) (EL-4 lymphoma; [5]): significantly reduced | neutrophils (blood routine test) (EL-4 lymphoma; [5]): significantly reduced | Change of weight (g) Before administration (B16F10 melanoma; 0.1 g/kg group): 18.97 ± 0.55 g | Change of weight (g) After administration (B16F10 melanoma; 0.1 g/kg once a week): 19.07 ± 1.46 g | Tumor suppression (%) (B16F10 melanoma; 0.1 g/kg once a week): 85.82% | Tumor weight (B16F10 melanoma; 0.1 g/kg once a week): 0.26 ± 0.11 g

CC(C)(C)NC(=O)[C@H]1CC[C@H]2[C@@H]3CC[C@H]4NC(=O)C=C[C@]4(C)[C@H]3CC[C@]12C [finasteride]
Average weight ([2]; 1 mg/kg orally): 43.5 ± 3.5 g | wet weight of the prostate ([2]; 1 mg/kg orally): 31.8 ± 4.8 mg | prostate index ([2]; 1 mg/kg orally): 0.75 ± 0.12 | Average weight ([2]; 3 mg/kg orally): 40.7 ± 3.1 g | wet weight of the prostate ([2]; 3 mg/kg orally): 29.2 ± 1.4 mg | prostate index ([2]; 3 mg/kg orally): 0.72 ± 0.08

B1: YK93-8: keratin with the amino acid sequence shown in SEQ ID NO.1, expressed in Escherichia coli, band around 63 KD; protein of Example 3 (protein, listed as Manis pentadactyla)
chain: MSCRSYRVSSGRQIGNFSSCSAVMPQSLSRFRASSVSCRSGPGFRGLGGFGSRSVIAFGSCPPRMAAVGPRPIRCGVGFSAGSGLAFGLGDSCGAGLGFGTGSGLGYGFGGPGFGYRIGGVGVPAAPSITAVTVNQSLLTPLNLEIDPNAQRVKRDEKEQIKTLNNKFASFIDKVRFLEQQNKLLETKWNFLQDQKGVQSNLEPLFENYVANLRRQLDIVSSDQARLETERNNMQDVLEGFKKKYEEEVVFRANAENEFVALKKDVDAAFLNKSDLEANVDALIQEIDFLKNLYMAEIQLLQSHISDTSVIVKMDNSRDLNFDGIIAEVKAQYEEVARRSRADAEAWYQTKYEEMRMTAGQHSDNLRNTRDEINELTRVIQRLKAEIEHTKAQRAKLEAAIAEAEQQGEAALNDAKCKLADLEAALQQAKQDMARQLREYQELMNIKLALDIEIATYRRLLEGEEIRICEGVGPVNISVSSSRGGVVCGPEPLLTSSTLSRGGVTFSGGSSIRSSGACGLSLGGSRVVAAGGDVLSAGSRGGSVLVGDACAPSIPCPLPTDGGFSSCSGGRSSLGSSVRFVSTTTSRRTKY
Change of weight (g) Before administration (Lewis lung cancer; 0.5 g/kg group): 17.91 ± 0.26 g | Change of weight (g) After administration (Lewis lung cancer; [6]): 21.93 ± 0.93 g | Tumor suppression (%) (Lewis lung cancer; [6]): 27.83% | Tumor weight (Lewis lung cancer; [6]): 2.16 ± 0.47 g | weight gain of young mice (lactation yield of female mice) [3]: no significant effect | serum prolactin content in female mouse ([3]; vs normal control group): to some extent increase | Tumor suppression (%) (EL-4 lymphoma; [7]): 13.18% | Tumor weight (EL-4 lymphoma; [7]): 2.44 ± 0.23 g | Number of writhing ([1]; 0.5 g/kg by gavage once a day for 7 days): 13.76 ± 11.84 | Change of weight (g) After administration (B16F10 melanoma; 2 g/kg daily): 19.78 ± 0.76 g | Tumor suppression (%) (B16F10 melanoma; 2 g/kg daily): 50.18% | Tumor weight (B16F10 melanoma; 2 g/kg daily): 0.90 ± 0.41 g | Change of weight (g) Before administration (B16F10 melanoma; 2 g/kg group): 19.20 ± 0.54 g | wet weight of the prostate ([2]; 0.5 g/kg orally): 44.3 ± 9.3 mg | prostate index ([2]; 0.5 g/kg orally): 1.12 ± 0.20
